Results on four molecules are retold here after US5100875A, “Novel peptides having plateler aggregation inhibitory activity” (Institut National de la Sante et de la Recherche Medicale …, priority 1986, dated 1992).

What is called IC50 is the concentration that gives 50% inhibition. Lower therefore signals greater potency.

One experiment has as its system platelets. Put plainly: Inhibition of platelet aggregation (ADP-induced, washed platelets with fibrinogen). Type of experiment: cell-based. The note with it: isolated human platelets, ADP 5×10^-6 M, fibrinogen 1.1×10^-6 M. How it is done: The effect of the synthetic peptides on platelet aggregation was studied on platelets isolated as previously described for the study of the binding to fibrinogen. The stimulation of the platelets was also brought about by 5×10^-6 M ADP and the assay was carried out in the presence of 1.1×10^-6 M fibrinogen and of […] CaCl2.

The target in experiment [1] is T1, platelet fibrinogen receptor (Homo sapiens, UniProt P05106+P08514).
T1 construct: endogenous in cells; host or cells: washed human blood platelets, stimulated with ADP
As to the kind of experiment: Inhibition of platelet-fibrinogen binding (125I-fibrinogen, ADP-stimulated washed platelets). Conditions: 4×10^7 human platelets, 125I-fibrinogen 0.1×10^-6 M, ADP 5×10^-6 M, CaCl2 0.5 mM, 15 mn incubation. How it is done:
The platelets were isolated from 60 ml of human blood collected in the anticoagulant buffer ACD in a ratio of 1 volume of ACD to 6 volumes of blood.
The blood is then centrifuged for 20 mn at a 1,000 r/mn (JOUAN E 96 centrifuge) at room temperature.
The PRP (plasma rich in platelets) is decanted and treated with 0.1 μM PGE1, then centrifuged for 15 mn at 2,000 r/mn.
The platelets obtained in the pellet are then taken up in 1 ml of Tyrode buffer-albumin, pH 7.2, prepared with the following composition:
The platelets are washed on a column of Sepharose CL 2B using Tyrode buffer-albumin, pH 7.2, then the platelets are recovered and diluted to a concentration of 2×10^8 platelets/ml.
The assays are carried out on 4×10^7 platelets in the presence of CaCl2 (0.5 mM), ^125 I-fibrinogen 0.1×10^-6 M) and different concentrations of peptide, and the stimulation of the platelets is induced by ADP (5×10^-6 M). After incubation for 15 mn and deposition on a 15% saccharose solution the ^125 I-fibrinogen-plateletcomplex is isolated by centrifugation at 12,000 r/mn for 2 mn.
This table also presents the sequence of the peptides.

Residues, ends and D or L forms follow the SMILES beside them.

T1 sequence (P08514 32-887 limits assumed): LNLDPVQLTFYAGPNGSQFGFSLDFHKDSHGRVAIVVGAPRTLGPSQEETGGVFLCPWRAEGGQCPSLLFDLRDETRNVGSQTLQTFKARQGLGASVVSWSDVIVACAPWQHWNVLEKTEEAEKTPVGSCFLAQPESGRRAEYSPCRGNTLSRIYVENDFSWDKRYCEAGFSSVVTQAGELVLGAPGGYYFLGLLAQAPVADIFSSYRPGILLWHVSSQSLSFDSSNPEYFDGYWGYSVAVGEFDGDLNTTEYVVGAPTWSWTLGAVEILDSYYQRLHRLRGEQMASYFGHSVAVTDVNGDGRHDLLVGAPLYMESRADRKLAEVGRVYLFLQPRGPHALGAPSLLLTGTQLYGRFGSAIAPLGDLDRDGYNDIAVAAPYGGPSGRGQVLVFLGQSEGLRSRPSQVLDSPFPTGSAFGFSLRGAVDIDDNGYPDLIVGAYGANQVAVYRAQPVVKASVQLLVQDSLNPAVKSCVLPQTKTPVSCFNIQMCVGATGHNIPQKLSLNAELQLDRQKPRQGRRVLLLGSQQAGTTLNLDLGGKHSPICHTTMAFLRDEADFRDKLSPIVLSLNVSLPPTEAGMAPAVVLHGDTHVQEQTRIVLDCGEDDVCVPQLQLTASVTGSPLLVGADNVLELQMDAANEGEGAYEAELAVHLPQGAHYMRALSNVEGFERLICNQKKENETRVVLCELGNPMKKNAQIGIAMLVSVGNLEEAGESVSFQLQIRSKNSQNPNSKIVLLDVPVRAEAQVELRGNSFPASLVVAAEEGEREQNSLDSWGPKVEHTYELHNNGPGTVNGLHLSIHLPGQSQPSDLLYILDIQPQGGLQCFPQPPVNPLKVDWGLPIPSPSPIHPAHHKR
T1 sequence (P08514 891-1039 partner limits assumed): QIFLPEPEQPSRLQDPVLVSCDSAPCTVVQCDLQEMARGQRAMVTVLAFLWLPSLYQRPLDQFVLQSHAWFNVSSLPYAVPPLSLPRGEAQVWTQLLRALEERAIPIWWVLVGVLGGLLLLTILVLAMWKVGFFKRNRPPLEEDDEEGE
T1 sequence (P05106 27-788): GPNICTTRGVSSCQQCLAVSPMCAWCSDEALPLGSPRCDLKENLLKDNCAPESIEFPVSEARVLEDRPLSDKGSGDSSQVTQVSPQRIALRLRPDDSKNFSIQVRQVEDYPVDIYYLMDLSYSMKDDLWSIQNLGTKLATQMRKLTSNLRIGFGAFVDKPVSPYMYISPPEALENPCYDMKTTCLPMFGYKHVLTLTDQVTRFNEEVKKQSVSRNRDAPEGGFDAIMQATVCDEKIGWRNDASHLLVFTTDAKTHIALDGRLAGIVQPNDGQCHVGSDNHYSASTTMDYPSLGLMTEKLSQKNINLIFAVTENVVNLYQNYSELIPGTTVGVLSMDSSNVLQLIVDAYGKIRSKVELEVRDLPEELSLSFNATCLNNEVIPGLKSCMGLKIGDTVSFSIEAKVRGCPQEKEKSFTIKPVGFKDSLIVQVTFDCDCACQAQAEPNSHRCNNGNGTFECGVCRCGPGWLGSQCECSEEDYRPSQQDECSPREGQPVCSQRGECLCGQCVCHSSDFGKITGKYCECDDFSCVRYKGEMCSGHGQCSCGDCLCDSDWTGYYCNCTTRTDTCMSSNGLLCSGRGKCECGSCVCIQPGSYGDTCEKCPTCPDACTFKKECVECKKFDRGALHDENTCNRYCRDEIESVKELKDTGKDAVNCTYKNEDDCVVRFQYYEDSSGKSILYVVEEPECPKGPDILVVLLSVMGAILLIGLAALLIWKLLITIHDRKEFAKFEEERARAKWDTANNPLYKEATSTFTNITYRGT

In the case of `N=C(N)NCCC[C@H](N)C(=O)NCC(=O)N[C@@H](CC(=O)O)C(=O)N[C@@H](Cc1ccccc1)C(=O)O` [RGDF, H-Arg-Gly-Asp-Phe-OH] (H-RGDF-OH), the IC50 was determined as 15 µM with platelets and 7 µM in experiment [1].
`N=C(N)NCCC[C@H](N)C(=O)NCC(=O)N[C@@H](CC(=O)O)C(=O)N[C@@H](Cc1c[nH]c2ccccc12)C(=O)O` [RGDW, H-Arg-Gly-Asp-Trp-OH] (H-RGDW-OH) returned an IC50 in the experiment with platelets of 10 µM.
In experiment [1], `NC(N)=NCCC[C@H](N)C(=O)NCC(=O)N[C@@H](CC(=O)O)C(=O)N[C@@H](Cc1c[nH]c2ccccc12)C(=O)O` [RGDW, H-Arg-Gly-Asp-Trp-OH] (H-RGDW-OH) registered an IC50 of 3.6 µM.
On to “H-LRGDF-OH [LRGDF, H-Leu-Arg-Gly-Asp-Phe-OH]”, for which the IC50 (with platelets; in experiment [1]) was 20 µM in each case.
